Results: ChEMBL document CHEMBL1145225, “Antitumor agents. Part 236: Synthesis of water-soluble colchicine derivatives” (Bioorg Med Chem Lett, 2005)
Converted amounts (≈) assume the structure as drawn.

Legend:
[1] = In vitro cytotoxic activity against human lung carcinoma (A549) tumor cell line; type: cell-based
[2] = (§1) In vitro cytotoxic activity against human epidermoid carcinoma of the nasopharynx (KB) tumor cell line
[3] = test system: KB-V (P-gp-expressing MDR KB subclone); assay: Percentage inhibition of multi drug resistant KB subclone growth expressing P-glycoprotein (KB-V) at 4 ug/mL concentration was determined; details: for inhibition at 4 µg/mL: Homo sapiens, KB-V
[4] = In vitro cytotoxic activity against human ovarian carcinoma (1A9) tumor cell line
KB = assay: as §1; type: functional, cell-based

| SMILES | IC50 [1] [µg/mL] | IC50 [2] [µg/mL] | Inhibition [3] [%] | IC50 [4] [µg/mL] | inhibition at 4 µg/mL [3] [%] | IC50 (KB) [µg/mL] |
| --- | --- | --- | --- | --- | --- | --- |
| COc1cc2c(c(OC)c1OC(=O)CN(C)C)-c1ccc(OC)c(=O)cc1[C@@H](NC(C)=O)CC2.O=C(O)C(O)C(O)C(=O)O | 0.88 | 0.16 | 4 | 0.11 |  |  |
| COc1cc2c(c(OC)c1OC(=O)CN(C)C)-c1ccc(SC)c(=O)cc1C(NC(C)=O)CC2 (single isomer, unassigned; 5) | 0.05 (≈ 0.103 µM) | 0.02 (≈ 0.0411 µM) |  | 0.05 (≈ 0.103 µM) | 45 |  |
| COc1cc2c(c(OC)c1OC)-c1ccc(=O)c(O)cc1[C@@H](NC(C)=O)CC2 [COLCHICEINE] | 0.002 (≈ 0.00519 µM) | 0.003 (≈ 0.00778 µM) |  | 0.003 (≈ 0.00778 µM) |  |  |
| COc1cc2c(c(OC)c1O)-c1ccc(OC)c(=O)cc1[C@@H](NC(C)=O)CC2 [2-DESMETHYLCOLCHICIN] | 0.1 (≈ 0.259 µM) | 0.1 (≈ 0.259 µM) |  | 0.1 (≈ 0.259 µM) | 24 |  |
| COc1cc2c(c(OC)c1O)-c1ccc(SC)c(=O)cc1[C@@H](NC(C)=O)CC2 | 0.01 (≈ 0.0249 µM) | 0.01 (≈ 0.0249 µM) |  | 0.01 (≈ 0.0249 µM) | 56 |  |
| COc1cc2c(c(OC)c1OC(=O)CN(C)C)-c1ccc(SC)c(=O)cc1C(NC(C)=O)CC2.O=C(O)C(O)C(O)C(=O)O (single isomer, unassigned; 5a) | 0.06 | 0.02 | 28 | 0.01 |  |  |
| COc1cc2c(c(OC)c1OC(=O)CN(C)C)-c1ccc(OC)c(=O)cc1[C@@H](NC(C)=O)CC2 | 0.44 (≈ 0.935 µM) |  |  | 0.04 (≈ 0.085 µM) | 5 | 0.09 (≈ 0.191 µM) |
